# Source: patent US20060074047A1, “Method of treating inflammation with inhibitors of sialyl transferases” (priority 2004, published 2006)
# Entries after “also recorded” stand apart in the source; their conditions may differ.
# What was measured:
# [1] = test system: endogenous sialyltransferase activity of human polymorphonuclear leukocytes; assay: Sialyltransferase assay (flow cytometry), intact PMNs as endogenous ST source; format: cell-based
# Source text: (§1) For the study of PMN ST activity, a previously described ST assay was adapted in which CMP-5-NANA served as the labeled sialyl residue donor and neuraminidase-treated RBCs as the sialyl residue acceptor (7). Based on preliminary studies, a standard reaction mixture contained a sialyl residue acceptor, either RBCs or polymorphonuclear leukocytes, CMP-5-NANA and a ST source. Purified α2,6-ST at a final concentration of 0.5 nU/ml, or polymorphonuclear leukocytes as an endogenous source of ST activity were used in a final volume of 100 μl cell incubation buffer (CIB) containing PBS plus 5 mg/ml BSA, pH 6.8. Sialyl residue acceptor SRBCs and polymorphonuclear leukocytes were desialylated with 25 mU/ml NANase/1-2×10^8/cells in 1 ml of CIB for 1 h at 37° C., washed once in CIB and used at 4×10^6 cells or at 8×10^6 cells respectively in a volume of 40 μl. When used as an endogenous source of ST activity, human polymorphonuclear leukocytes were adjusted to a stock concentration of 1×10^8 PMN/ml, lysed by freeze/thawing, centrifuged, and the protein concentration of the supernatant determined (Bio-Rad Laboratories, Hercules, Calif.). Intact human polymorphonuclear leukocytes at 8×10^6/0.1 ml assay volume were also used both as a source of ST activity as well as an acceptor of sialyl residues.
# (§2) After gentle mixing, all tubes were incubated for 2 h at 37° C. in a humidified atmosphere containing 5% CO2. The cells were washed, pelleted and resuspended in CIB and analyzed fluorocytometrically on a FACScan II (Becton-Dickinson, Mountain View, Calif.). Based on forward and right angle light scatter properties, an electronic gate was placed around the RBCs or polymorphonuclear leukocytes which were excited at […] and emission measured at 530 nm. At least 10,000 events were recorded per condition. Data was analyzed with a CellQuest analysis program.
# For each experiment, controls included omission of each of the components of the assay mixture, i.e., ST source, CMP-5 NANA or sialyl residue acceptor) as well as boiled, exogenous α2,6 ST. When indicated, 2-DN (0.04 mM, final concentration), an inhibitor of sialidase activity (8) was introduced to prevent the possible removal of the transferred sialyl residues. ST activity was measured after subtraction of background fluorescence, i.e., complete assay mixture minus either the exogenous ST or, for endogenous ST, in the presence and absence of the ST inhibitor, CMP (0.3 mM final concentration) and was expressed as % of maximal activity. For experiments in which it was estimated the endogenous ST activity, a standard curve was constructed using serial 2-fold dilutions of purified α2-6 ST enzyme from which tissue ST activity was interpolated, and expressed the ST activity as nU per μg protein.
# α2,6 sialyltransferase = α2,6 sialyltransferase (Photobacterium damselae, UniProt O66375); assay: Sialyltransferase assay (flow cytometry), exogenous ST with PMNs as sialyl residue acceptors; format: cell-based, bacterial; details: 0.3 mM CMP
# Source text: as §1, with “Sialyl residue acceptor SRBCs and polymorphonuclear leukocytes were desialylated with 25 mU/ml NANase/1-2×10^8/cells in 1 ml of CIB for 1 h at 37° C., washed once in CIB and used at 4×10^6 cells or at 8×10^6 cells respectively in a volume of 40 μl.” left out, “Intact human polymorphonuclear leukocytes at 8×10^6/0.1 ml assay volume were also used both as a source of ST activity as well as an acceptor of sialyl residues.” left out
# as §2, with “Data was analyzed with a CellQuest analysis program.” left out
# [2] = test system: polymorphonuclear leukocytes; assay: Preliminary tests of CMP toxicity to PMNs; format: cell-based, human; details: 0.3 mM CMP
# [3] = test system: human polymorphonuclear leukocytes migrating across human pulmonary artery endothelial cells (HPAEC); assay: Transendothelial migration of PMNs across HPAEC monolayers in response to IL-8; format: cell-based; details: 0.3 mM CMP; TNF-treated HPAEC monolayers, IL-8 150 ng/ml, 2 h; p<0.03
# Method: FIG. 4 depicts inhibition of transendothelial cell migration by an ST inhibitor, cytidine monophosphate (CMP). Calcein AM-labeled human polymorphonuclear leukocytes were added to human pulmonary artery endothelial cells (HPAEC) pre-treated for 4 hrs with rTNF (50 U/ml). TEM was measured in response to IL-8 (150 ng/ml) over 2 hr as previously described (6) in the absence and presence of 0.3 mM CMP. 4 chambers/variable were studied. This figure is representative of 3 independent experiments.
# The ability of human polymorphonuclear leukocytes to migrate across human pulmonary artery endothelial cell (HPAEC) monolayers in response to a chemotactic stimulus (IL-8) was measured as previously described (6). Only EC monolayers retaining […] of a ^14C-bovine serum albumen tracer were studied (i.e. no loss of barrier function). After treatment of HPAECs for 4 h with 25 U/ml TNFr, calcein AM (Molecular Probes, Eugene, Oreg.)-labeled human polymorphonuclear leukocytes (5×10^5 cells/well) were introduced into the upper compartments of the assay chambers, incubated for 2 h at 37° C., after which time each lower compartment was sampled and fluorometrically assayed. A standard curve was established for each experiment from which polymorphonuclear leukocyte numbers could be interpolated from fluorescence units and PMN TEM was expressed as % migration.
# [4] = test system: polymorphonuclear leukocytes in the peritoneal fluid; assay: In vivo IL-8 recruitment of PMNs to the peritoneal fluid; details: mice; CMP intravenously 30 min before and 1 hr after IL-8 (150 ng/ml) intraperitoneally; counted at 2 hrs
# Method: Mice are pre-treated intravenously with different doses of CMP 30 minutes before giving IL-8 (150 ng/ml) intraperitoneally to recruit polymorphonuclear leukocytes. This is followed with another dose of CMP one hr after the IL-8. Polymorphonuclear leukocytes in the peritoneal fluid of these mice are counted at 2 hrs after the IL-8, i.e., one hr after the second dose of CMP. The total polymorphonuclear leukocytes in the perioneal fluid of mice treated with CMP is compared with those given an equal volume of saline. It is contemplated that those receiving the CMP will have a lower number of polymorphonuclear leukocytes in the perioneal fluid.
# [5] = test system: polymorphonuclear leukocytes adhering to human microvascular endothelial cells (HMVEC); assay: Adherence of resting PMNs to LPS-activated endothelial cells; format: cell-based; details: CMP 2.5 mM for 5 minutes prior to stimulation; LPS 100 ng/ml for 4 hrs; FIG. 5
# Method: In contrast, when the human microvascular endothelial cells, HMVECs, are treated with lipopolysaccharide, LPS, (100 ng/ml for 4 hrs) to activate them, resting polymorphonuclear leukocytes adhere better to the HMVECs. […] When polymorphonuclear leukocytes are activated with the tetrapeptide FMLP (1×10^−7 M/cyt b for 5 min.) they adhere better than do resting polymorphonuclear leukocytes (FIG. 5). At this later stage of PMN-EC interaction, sialyltransferase doesn't play a role. It is contemplated that CMP appears to work by inhibiting the initial binding of non-activated polymorphonuclear leukocytes to the ECs and also works at the late stage where polymorphonuclear leukocytes that have migrated through the EC monolayer are unable to move further to the inflammatory nidus.
# α2,6 sialyltransferase, sequence (O66375 entry or part of it): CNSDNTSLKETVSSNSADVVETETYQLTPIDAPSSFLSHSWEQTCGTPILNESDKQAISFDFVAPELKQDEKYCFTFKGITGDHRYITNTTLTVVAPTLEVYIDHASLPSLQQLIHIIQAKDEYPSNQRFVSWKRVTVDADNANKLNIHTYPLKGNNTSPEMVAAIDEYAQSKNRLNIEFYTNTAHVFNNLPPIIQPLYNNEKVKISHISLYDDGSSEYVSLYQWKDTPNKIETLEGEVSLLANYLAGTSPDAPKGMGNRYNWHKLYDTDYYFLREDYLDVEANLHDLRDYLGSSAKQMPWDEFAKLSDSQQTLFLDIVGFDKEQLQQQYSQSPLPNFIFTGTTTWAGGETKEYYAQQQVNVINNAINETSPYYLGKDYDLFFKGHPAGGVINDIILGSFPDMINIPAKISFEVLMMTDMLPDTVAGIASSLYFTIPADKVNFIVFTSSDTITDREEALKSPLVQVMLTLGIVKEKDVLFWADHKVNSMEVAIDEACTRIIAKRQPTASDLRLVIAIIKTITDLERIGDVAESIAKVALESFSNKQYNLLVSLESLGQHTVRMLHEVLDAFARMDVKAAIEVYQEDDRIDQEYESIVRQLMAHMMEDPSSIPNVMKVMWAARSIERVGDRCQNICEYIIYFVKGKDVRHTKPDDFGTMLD
"MFI (ST activity) in presence of sialidase inhibitor 2-DN ([1]; FIG. 3B: intact untreated PMNs, 2-DN 0.04 mM final concentration, MFI 364 without 2-DN)",SMILES,"inhibition of ST activity in vitro ([1]; 0.3 mM CMP, preliminary tests)","MFI (mean fluorescence intensity) with CMP ([1]; FIG. 2C: neuraminidase-pretreated PMNs + intact untreated PMNs as endogenous ST source, 0.3 mM CMP, MFI 295 without CMP)","MFI (mean fluorescence intensity) with CMP ([1]; FIG. 2D: intact untreated PMNs added to PMNs not exposed to neuraminidase, 0.3 mM CMP, MFI 266 without CMP)","mean fluorescence intensity (MFI) after CMP treatment ([1]; FIG. 3A: PMNs (8×10^6), 10 μM CMP-NANA, 0.3 mM CMP, MFI 364 without CMP)","MFI (mean fluorescence intensity) with CMP (α2,6 sialyltransferase; FIG. 2A: neuraminidase-pretreated PMNs + exogenous sialyltransferase, MFI 406 without CMP)","MFI (mean fluorescence intensity) with CMP (α2,6 sialyltransferase; FIG. 2B: PMNs unexposed to neuraminidase + exogenous sialyltransferase, MFI 310 without CMP)",toxicity to the polymorphonuclear leukocytes [2],inhibition of TEM (transendothelial migration) [3] [%],number of polymorphonuclear leukocytes in the peritoneal fluid vs saline [4],adherence of resting PMNs to LPS-treated HMVECs [5]
317,"CC(=O)N[C@H]1[C@H]([C@H](O)[C@H](O)CO)OC(C(=O)O)=C[C@@H]1O [2-DN, 2,3 deoxy-N-acetyl neuraminic acid]",,,,,,,,,,
,"Nc1ccn([C@@H]2O[C@H](COP(=O)(O)O)[C@@H](O)[C@H]2O)c(=O)n1 [CMP, cytidine 5′-monophosphate]",fully inhibited,141,131,222,165,167,not toxic,> 40,lower number,inhibits the initial binding; also recorded: decreased adherence
